Measured values as given in US20150105252A1, “SUBSTITUTED PYRAZOLES AS HERBICIDES” (E I DU PONT DE NEMOURS AND COMPANY, priority 2013, published 2015).

How the values were obtained:
Experiment in all cases: Test C postemergence
johnsongrass = assay type: in vivo, Sorghum halepense; details: for Plant response rating (scale of 0 to 100 where 0 is no effect and 100 is complete control), Johnsongrass: Postemergence, 31 g ai/ha, visually evaluated after 13 to 15 days; for Johnsongrass plant response rating / Plant response rating, Johnsongrass: postemergence; for Johnsongrass plant response rating: 62 g ai/ha, scale 0 to 100
Summary of the method: (§1)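 Visual rating, 0–100 scale (0 no effect, 100 complete control), vs untreated controls after 13–15 d greenhouse. Pre: seeds in loam/sand, treated at sowing. Post: plants in peat-based mix, 1- to 4-leaf (2–18 cm). Solvent + surfactant formulation, non-phytotoxic.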

lambsquarters = assay type: in vivo, Chenopodium album; details: for Plant response rating (scale of 0 to 100 where 0 is no effect and 100 is complete control), Lambsquarters: Postemergence, 31 g ai/ha, visually evaluated after 13 to 15 days; for Lambsquarters plant response rating / Plant response rating, Lambsquarters: postemergence; for Lambsquarters plant response rating: 62 g ai/ha, scale 0 to 100
Summary of the method: as §1

barnyardgrass = assay type: in vivo, Echinochloa crus-galli; details: for Plant response rating (scale of 0 to 100 where 0 is no effect and 100 is complete control), Barnyardgrass: Postemergence, 31 g ai/ha, visually evaluated after 13 to 15 days; for Barnyardgrass plant response rating / Plant response rating, Barnyardgrass: postemergence; for Barnyardgrass plant response rating: 62 g ai/ha, scale 0 to 100
Summary of the method: as §1

blackgrass = assay type: in vivo, Alopecurus myosuroides; details: for Plant response rating (scale of 0 to 100 where 0 is no effect and 100 is complete control), Blackgrass: Postemergence, 31 g ai/ha, visually evaluated after 13 to 15 days; for Blackgrass plant response rating / Plant response rating, Blackgrass: postemergence; for Blackgrass plant response rating: 62 g ai/ha, scale 0 to 100
Summary of the method: as §1

waterhemp = assay type: in vivo, Amaranthus rudis; details: postemergence, 250 g ai/ha; scale 0 to 100 (0 no effect, 100 complete control)
Summary of the method: as §1

oat, wild = assay type: in vivo, Avena fatua; details: for Plant response rating (scale of 0 to 100 where 0 is no effect and 100 is complete control), Oat, Wild: Postemergence, 31 g ai/ha, visually evaluated after 13 to 15 days; for Oat, Wild plant response rating / Plant response rating, Oat, Wild: postemergence; for Oat, Wild plant response rating: 62 g ai/ha, scale 0 to 100
Summary of the method: as §1

foxtail, giant = assay type: in vivo, Setaria faberii; details: for Plant response rating (scale of 0 to 100 where 0 is no effect and 100 is complete control), Foxtail, Giant: Postemergence, 31 g ai/ha, visually evaluated after 13 to 15 days; for Foxtail, Giant plant response rating / Plant response rating, Foxtail, Giant: postemergence; for Foxtail, Giant plant response rating: 62 g ai/ha, scale 0 to 100
Summary of the method: as §1

soybean = assay type: in vivo, Glycine max; details: postemergence; for Plant response rating, Soybean: 250 g ai/ha, scale 0 to 100 (0 no effect, 100 complete control); for Soybean plant response rating: 125 g ai/ha, scale 0 to 100, 0 no effect, 100 complete control
Summary of the method: as §1

pigweed = assay type: in vivo, Amaranthus retroflexus; details: postemergence; for Pigweed plant response rating: 62 g ai/ha, scale 0 to 100
Summary of the method: as §1

morningglory = assay type: in vivo, Ipomoea coccinea; details: for Plant response rating (scale of 0 to 100 where 0 is no effect and 100 is complete control), Morningglory: Postemergence, 31 g ai/ha, visually evaluated after 13 to 15 days; for Morningglory plant response rating / Plant response rating, Morningglory: postemergence; for Morningglory plant response rating: 62 g ai/ha, scale 0 to 100
Summary of the method: as §1

nutsedge, yellow = assay type: in vivo, Cyperus esculentus; details: for Plant response rating (scale of 0 to 100 where 0 is no effect and 100 is complete control), Nutsedge, Yellow: Postemergence, 31 g ai/ha, visually evaluated after 13 to 15 days; for Nutsedge, Yellow plant response rating / Plant response rating, Nutsedge, Yellow: postemergence; for Nutsedge, Yellow plant response rating: 62 g ai/ha, scale 0 to 100
Summary of the method: as §1

wheat = assay type: in vivo, Triticum aestivum; details: postemergence; for Plant response rating, Wheat: 250 g ai/ha, scale 0 to 100 (0 no effect, 100 complete control)
Summary of the method: as §1

oilseed rape = assay type: in vivo, Brassica napus; details: postemergence; for Oilseed Rape plant response rating: 62 g ai/ha, scale 0 to 100
Summary of the method: as §1

kochia = assay type: in vivo, Kochia scoparia; details: for Plant response rating (scale of 0 to 100 where 0 is no effect and 100 is complete control), Kochia: Postemergence, 31 g ai/ha, visually evaluated after 13 to 15 days; for Kochia plant response rating / Plant response rating, Kochia: postemergence; for Kochia plant response rating: 62 g ai/ha, scale 0 to 100
Summary of the method: as §1

ryegrass, Italian = assay type: in vivo, Lolium multiflorum; details: postemergence
Summary of the method: as §1

chickweed = assay type: in vivo, Stellaria media; details: for Plant response rating (scale of 0 to 100 where 0 is no effect and 100 is complete control), Chickweed: Postemergence, 31 g ai/ha, visually evaluated after 13 to 15 days; for Chickweed plant response rating / Plant response rating, Chickweed: postemergence; for Chickweed plant response rating: 62 g ai/ha, scale 0 to 100
Summary of the method: as §1

ragweed = assay type: in vivo, Ambrosia elation; details: postemergence
Summary of the method: as §1

[1] = 250 g ai/ha, scale 0 to 100 (0 no effect, 100 complete control)
[2] = 125 g ai/ha, scale 0 to 100, 0 no effect, 100 complete control

## CCOc1cc(C(=O)NC(C)C)nn1Cc1ccnc(C(F)(F)F)c1 [Compound 188]
johnsongrass
  Plant response rating (scale of 0 to 100 where 0 is no effect and 100 is complete control), Johnsongrass: 0
  Johnsongrass plant response rating: 0
johnsongrass; [1]
  Plant response rating, Johnsongrass: 65
johnsongrass; [2]
  Plant response rating, Johnsongrass: 50
lambsquarters
  Plant response rating (scale of 0 to 100 where 0 is no effect and 100 is complete control), Lambsquarters: 60
  Lambsquarters plant response rating: 75
lambsquarters; [1]
  Plant response rating, Lambsquarters: 95
lambsquarters; [2]
  Plant response rating, Lambsquarters: 90
barnyardgrass
  Plant response rating (scale of 0 to 100 where 0 is no effect and 100 is complete control), Barnyardgrass: 5
  Barnyardgrass plant response rating: 15
barnyardgrass; [1]
  Plant response rating, Barnyardgrass: 65
barnyardgrass; [2]
  Plant response rating, Barnyardgrass: 30
blackgrass
  Plant response rating (scale of 0 to 100 where 0 is no effect and 100 is complete control), Blackgrass: 5
  Blackgrass plant response rating: 5
blackgrass; [1]
  Plant response rating, Blackgrass: 70
blackgrass; [2]
  Plant response rating, Blackgrass: 40
waterhemp
  Plant response rating, Waterhemp: 95
oat, wild
  Plant response rating (scale of 0 to 100 where 0 is no effect and 100 is complete control), Oat, Wild: 15
  Oat, Wild plant response rating: 10
oat, wild; [1]
  Plant response rating, Oat, Wild: 85
oat, wild; [2]
  Plant response rating, Oat, Wild: 60
foxtail, giant
  Plant response rating (scale of 0 to 100 where 0 is no effect and 100 is complete control), Foxtail, Giant: 5
  Foxtail, Giant plant response rating: 40
foxtail, giant; [1]
  Plant response rating, Foxtail, Giant: 90
foxtail, giant; [2]
  Plant response rating, Foxtail, Giant: 60
soybean
  Plant response rating, Soybean: 98
  Soybean plant response rating: 95
pigweed
  Pigweed plant response rating: 75
pigweed; [1]
  Plant response rating, Pigweed: 85
pigweed; [2]
  Plant response rating, Pigweed: 80
morningglory
  Plant response rating (scale of 0 to 100 where 0 is no effect and 100 is complete control), Morningglory: 85
  Morningglory plant response rating: 90
morningglory; [1]
  Plant response rating, Morningglory: 98
morningglory; [2]
  Plant response rating, Morningglory: 98
nutsedge, yellow
  Plant response rating (scale of 0 to 100 where 0 is no effect and 100 is complete control), Nutsedge, Yellow: 5
  Nutsedge, Yellow plant response rating: 35
nutsedge, yellow; [1]
  Plant response rating, Nutsedge, Yellow: 10
nutsedge, yellow; [2]
  Plant response rating, Nutsedge, Yellow: 5
wheat
  Plant response rating, Wheat: 40
wheat; scale 0 to 100
  Wheat plant response rating: 15
Oilseed rape
  Oilseed Rape plant response rating: 60
Oilseed rape; [1]
  Plant response rating, Oilseed Rape: 90
Oilseed rape; [2]
  Plant response rating, Oilseed Rape: 70
kochia
  Plant response rating (scale of 0 to 100 where 0 is no effect and 100 is complete control), Kochia: 90
  Kochia plant response rating: 90
kochia; [1]
  Plant response rating, Kochia: 90
kochia; [2]
  Plant response rating, Kochia: 90
ryegrass, Italian; [1]
  Plant response rating, Ryegrass, Italian: 35
ryegrass, Italian; [2]
  Plant response rating, Ryegrass, Italian: 20
chickweed
  Plant response rating (scale of 0 to 100 where 0 is no effect and 100 is complete control), Chickweed: 70
  Chickweed plant response rating: 85
chickweed; [1]
  Plant response rating, Chickweed: 98
chickweed; [2]
  Plant response rating, Chickweed: 80
ragweed; [1]
  Plant response rating, Ragweed: 90
ragweed; [2]
  Plant response rating, Ragweed: 85

## CCOc1cc(C(=O)NC2CC2)nn1Cc1ccnc(C(F)(F)F)c1 [Compound 189]
johnsongrass
  Plant response rating (scale of 0 to 100 where 0 is no effect and 100 is complete control), Johnsongrass: 0
  Johnsongrass plant response rating: 15
johnsongrass; [1]
  Plant response rating, Johnsongrass: 35
johnsongrass; [2]
  Plant response rating, Johnsongrass: 5
lambsquarters
  Plant response rating (scale of 0 to 100 where 0 is no effect and 100 is complete control), Lambsquarters: 60
  Lambsquarters plant response rating: 70
lambsquarters; [1]
  Plant response rating, Lambsquarters: 85
lambsquarters; [2]
  Plant response rating, Lambsquarters: 95
barnyardgrass
  Plant response rating (scale of 0 to 100 where 0 is no effect and 100 is complete control), Barnyardgrass: 5
  Barnyardgrass plant response rating: 5
barnyardgrass; [1]
  Plant response rating, Barnyardgrass: 55
barnyardgrass; [2]
  Plant response rating, Barnyardgrass: 20
blackgrass
  Plant response rating (scale of 0 to 100 where 0 is no effect and 100 is complete control), Blackgrass: 5
  Blackgrass plant response rating: 5
blackgrass; [1]
  Plant response rating, Blackgrass: 50
blackgrass; [2]
  Plant response rating, Blackgrass: 10
waterhemp
  Plant response rating, Waterhemp: 90
oat, wild
  Plant response rating (scale of 0 to 100 where 0 is no effect and 100 is complete control), Oat, Wild: 10
  Oat, Wild plant response rating: 15
oat, wild; [1]
  Plant response rating, Oat, Wild: 60
oat, wild; [2]
  Plant response rating, Oat, Wild: 30
foxtail, giant
  Plant response rating (scale of 0 to 100 where 0 is no effect and 100 is complete control), Foxtail, Giant: 10
  Foxtail, Giant plant response rating: 10
foxtail, giant; [1]
  Plant response rating, Foxtail, Giant: 75
foxtail, giant; [2]
  Plant response rating, Foxtail, Giant: 25
soybean
  Plant response rating, Soybean: 95
  Soybean plant response rating: 95
pigweed
  Pigweed plant response rating: 75
pigweed; [1]
  Plant response rating, Pigweed: 90
pigweed; [2]
  Plant response rating, Pigweed: 85
morningglory
  Plant response rating (scale of 0 to 100 where 0 is no effect and 100 is complete control), Morningglory: 75
  Morningglory plant response rating: 80
morningglory; [1]
  Plant response rating, Morningglory: 98
morningglory; [2]
  Plant response rating, Morningglory: 95
nutsedge, yellow
  Plant response rating (scale of 0 to 100 where 0 is no effect and 100 is complete control), Nutsedge, Yellow: 5
  Nutsedge, Yellow plant response rating: 5
nutsedge, yellow; [1]
  Plant response rating, Nutsedge, Yellow: 20
nutsedge, yellow; [2]
  Plant response rating, Nutsedge, Yellow: 5
wheat
  Plant response rating, Wheat: 15
Oilseed rape
  Oilseed Rape plant response rating: 60
Oilseed rape; [1]
  Plant response rating, Oilseed Rape: 90
Oilseed rape; [2]
  Plant response rating, Oilseed Rape: 65
kochia
  Plant response rating (scale of 0 to 100 where 0 is no effect and 100 is complete control), Kochia: 85
  Kochia plant response rating: 90
kochia; [1]
  Plant response rating, Kochia: 90
kochia; [2]
  Plant response rating, Kochia: 90
ryegrass, Italian; [1]
  Plant response rating, Ryegrass, Italian: 40
ryegrass, Italian; [2]
  Plant response rating, Ryegrass, Italian: 5
chickweed
  Plant response rating (scale of 0 to 100 where 0 is no effect and 100 is complete control), Chickweed: 80
  Chickweed plant response rating: 80
chickweed; [1]
  Plant response rating, Chickweed: 90
chickweed; [2]
  Plant response rating, Chickweed: 85
ragweed; [1]
  Plant response rating, Ragweed: 90
ragweed; [2]
  Plant response rating, Ragweed: 75
